Results on 17 compounds are retold here after patent US12410208B2, “(2-acetamidyl)thio-beta-D-galactopyranoside derivatives” (Idorsia Pharmaceuticals Ltd, priority 2020, dated 2025).

Assay [1] concerns the target biotinylated human Gal-3 (hGal-3) (Homo sapiens, UniProt P17931). Description: Competitive binding assay: biotinylated hGal-3 binding to microplate-adsorbed asialofetuin (ASF), spectrophotometric. A digest of the protocol:
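Serially diluted compounds competed with asialofetuin on the plate for biotinylated human Gal-3 during a 3 h incubation at 4° C. Streptavidin-peroxidase with ABTS gave the spectrophotometric signal. IC50 values were averaged over repeat runs.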

The target of assay [2] is human Gal-1 (hGal-1) (Homo sapiens, UniProt P09382). Description: Competitive binding assay: biotinylated hGal-1 binding to microplate-adsorbed asialofetuin (ASF), spectrophotometric. The following applies: hGal-1 binding to asialofetuin; Table 15; R and S epimers of selected Examples also listed; read-out: IC50 (Galectin-1 inhibition). The method, boiled down: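 Spectrophotometric competition readout with ABTS after streptavidin-peroxidase (80 ng/mL, 1 h, 4 °C) detection of bound biotinylated hGal-1.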

Where [3] appears, read: Table 13, hGal-3, read-out: IC50 (Gal-3 inhibition).
Where [4] appears, read: Table 12, hGal-3, read-out: IC50 (Gal-3 inhibition).
[5] abbreviates: Gal-3 inhibition, Table 7, read-out: IC50.
Where [6] appears, read: Gal-3 inhibition, Table 5, read-out: IC50.

By IC50 is commonly meant the concentration that gives 50% inhibition.

Where two headings read alike, the source gives them in different places.

Chain of human Gal-1 (hGal-1) (P09382 whole entry): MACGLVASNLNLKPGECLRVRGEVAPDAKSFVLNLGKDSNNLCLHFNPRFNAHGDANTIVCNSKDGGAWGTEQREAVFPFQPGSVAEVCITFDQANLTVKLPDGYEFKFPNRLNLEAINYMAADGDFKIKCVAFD
Chain of biotinylated human Gal-3 (hGal-3) (P17931 whole entry): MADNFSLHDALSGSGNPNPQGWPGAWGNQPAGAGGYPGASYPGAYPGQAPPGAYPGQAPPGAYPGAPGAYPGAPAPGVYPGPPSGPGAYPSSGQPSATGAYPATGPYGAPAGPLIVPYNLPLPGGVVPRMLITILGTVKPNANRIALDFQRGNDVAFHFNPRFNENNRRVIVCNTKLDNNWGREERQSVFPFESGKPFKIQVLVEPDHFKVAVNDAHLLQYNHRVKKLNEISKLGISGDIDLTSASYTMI

For the compound `CO[C@@H]1[C@@H](n2cc(-c3cc(F)c(F)c(F)c3)nn2)[C@@H](O)[C@@H](CO)O[C@H]1SC(C(=O)N1CCC(F)(F)CC1)C1(O)CCC2(CC2)CC1` (stereo partly drawn) [Example 2.67.226.1., 1-(4,4-Difluoropiperidin-1-yl)-2-(((2S,3R,4S,5R,6R)-5-hydroxy-6-(hydroxymethyl)-3-methoxy-4-(4-(3,4,5-trifluorophenyl)-1H-1,2,3-triazol-1-yl)tetrahydro-2H-pyran-2-yl)thio)-2-(6-hydroxyspiro[2.5]octan-6-yl)ethan-1-one], the IC50 in assay [1] (setting [3]) turned out to be 120 nM; in assay [2] it was 170 nM.

Consider `CCN(C)C(=O)[C@@H](S[C@@H]1O[C@H](CO)[C@H](O)[C@H](n2cc(-c3cc(F)c(F)c(F)c3)nn2)[C@H]1O)C(O)(CC)CC` [Example 2.32.203S., (S)-2-(((2S,3R,4S,5R,6R)-3,5-Dihydroxy-6-(hydroxymethyl)-4-(4-(3,4,5-trifluorophenyl)-1H-1,2,3-triazol-1-yl)tetrahydro-2H-pyran-2-yl)thio)-N,3-diethyl-3-hydroxy-N-methylpentanamide], for which the IC50 in assay [1] (Table 6, hGal-3, read-out: IC50 (Gal-3 inhibition)) is 240 nM; in assay [2], 730 nM.

As to `CCN(C)C(=O)C(S[C@@H]1O[C@H](CO)[C@H](O)[C@H](n2cc(-c3cc(F)c(F)c(F)c3)nn2)[C@H]1OC)C1(O)CCC(F)(F)CC1` (stereo partly drawn) [Example 2.44.203.I., 2-(4,4-Difluoro-1-hydroxycyclohexyl)-N-ethyl-2-(((2S,3R,4S,5R,6R)-5-hydroxy-6-(hydroxymethyl)-3-methoxy-4-(4-(3,4,5-trifluorophenyl)-1H-1,2,3-triazol-1-yl)tetrahydro-2H-pyran-2-yl)thio)-N-methylacetamide], the IC50 came to 40 nM in assay [1] (setting [4]) and 120 nM in assay [2].

As for `CO[C@@H]1[C@@H](n2cc(-c3cc(F)c(F)c(F)c3)nn2)[C@@H](O)[C@@H](CO)O[C@H]1S[C@@H](C(=O)N1CCC(F)(F)CC1)C1(O)CCC2(CCCC2)CC1` [Example 2.71.226R.I., (R)-1-(4,4-Difluoropiperidin-1-yl)-2-(((2S,3R,4S,5R,6R)-5-hydroxy-6-(hydroxymethyl)-3-methoxy-4-(4-(3,4,5-trifluorophenyl)-1H-1,2,3-triazol-1-yl)tetrahydro-2H-pyran-2-yl)thio)-2-(8-hydroxyspiro[4.5]decan-8-yl)ethan-1-one], the IC50 was 670 nM in assay [1] (setting [3]) and 1100 nM in assay [2].

As to `CO[C@@H]1[C@@H](n2cc(-c3cc(F)c(F)c(F)c3)nn2)[C@@H](O)[C@@H](CO)O[C@H]1SC(C(=O)N1CCC(F)(F)CC1)C1(O)CCC2(CCOCC2)CC1` (stereo partly drawn) [Example 2.72.226.I., 1-(4,4-Difluoropiperidin-1-yl)-2-(((2S,3R,4S,5R,6R)-5-hydroxy-6-(hydroxymethyl)-3-methoxy-4-(4-(3,4,5-trifluorophenyl)-1H-1,2,3-triazol-1-yl)tetrahydro-2H-pyran-2-yl)thio)-2-(9-hydroxy-3-oxaspiro[5.5]undecan-9-yl)ethan-1-one], the figures for the half-maximal inhibitory concentration (IC50) in assay [1] (setting [3]) and in assay [2] were 60 nM and 120 nM, respectively.

Regarding `CN(CC1CC1)C(=O)C(S[C@@H]1O[C@H](CO)[C@H](O)[C@H](n2cc(-c3cc(F)c(F)c(F)c3)nn2)[C@H]1O)C(O)Cc1ccccc1` (stereo partly drawn) [Example 2.64.218., N-(Cyclopropylmethyl)-2-(((2S,3R,4S,5R,6R)-3,5-dihydroxy-6-(hydroxymethyl)-4-(4-(3,4,5-trifluorophenyl)-1H-1,2,3-triazol-1-yl)tetrahydro-2H-pyran-2-yl)thio)-3-hydroxy-N-methyl-4-phenylbutanamide], the IC50 in assay [1] (setting [5]) worked out at 110 nM; in assay [2], 340 nM.

For the compound `CN(CC(F)(F)F)C(=O)[C@@H](S[C@@H]1O[C@H](CO)[C@H](O)[C@H](n2cc(-c3cc(F)c(F)c(F)c3)nn2)[C@H]1O)C1(O)CCC1` [Example 2.34.219S., (S)-2-(((2S,3R,4S,5R,6R)-3,5-Dihydroxy-6-(hydroxymethyl)-4-(4-(3,4,5-trifluorophenyl)-1H-1,2,3-triazol-1-yl)tetrahydro-2H-pyran-2-yl)thio)-2-(1-hydroxycyclobutyl)-N-methyl-N-(2,2,2-trifluoroethyl)acetamide], the IC50 in assay [1] (setting [6]) came out at 110 nM; in assay [2], 120 nM.

Consider `CO[C@@H]1[C@@H](n2cc(-c3cc(F)c(F)c(F)c3)nn2)[C@@H](O)[C@@H](CO)O[C@H]1SC(C(=O)NC1CCOCC1)C1(O)CCC(F)(F)CC1` (stereo partly drawn) [Example 2.44.249.I., 2-(4,4-Difluoro-1-hydroxycyclohexyl)-2-(((2S,3R,4S,5R,6R)-5-hydroxy-6-(hydroxymethyl)-3-methoxy-4-(4-(3,4,5-trifluorophenyl)-1H-1,2,3-triazol-1-yl)tetrahydro-2H-pyran-2-yl)thio)-N-(tetrahydro-2H-pyran-4-yl)acetamide], for which the results for the IC50 in assay [1] (setting [4]) and in assay [2] were 80 nM and 360 nM, respectively.

Take `CN(CC(C)(C)C)C(=O)C(S[C@@H]1O[C@H](CO)[C@H](O)[C@H](n2cc(-c3cc(F)c(F)c(F)c3)nn2)[C@H]1O)C1(O)CCC1` (stereo partly drawn) [Example 2.34.228., 2-(((2S,3R,4S,5R,6R)-3,5-Dihydroxy-6-(hydroxymethyl)-4-(4-(3,4,5-trifluorophenyl)-1H-1,2,3-triazol-1-yl)tetrahydro-2H-pyran-2-yl)thio)-2-(1-hydroxycyclobutyl)-N-methyl-N-neopentylacetamide]: the 50% inhibitory concentration (IC50) worked out at 310 nM in assay [1] (setting [6]) and 160 nM in assay [2].

“(2R,3R,4S,5R,6S)-2-(Acetoxymethyl)-6-(((R)-2-(ethyl(methyl)amino)-1-(3-hydroxy-1-(methoxycarbonyl)azetidin-3-yl)-2-oxoethyl)thio)-4-(4-(3,4,5-trifluorophenyl)-1H-1,2,3-triazol-1-yl)tetrahydro-2H-pyran-3,5-diyl diacetate [Example 2.58.203R.]”: the half-inhibitory concentration (IC50) came out at 450 nM in assay [1] (Table 8, hGal-3, read-out: IC50 (Gal-3 inhibition)) and 1180 nM in assay [2].

`CO[C@@H]1[C@@H](n2cc(-c3cc(F)c(F)c(F)c3)nn2)[C@@H](O)[C@@H](CO)O[C@H]1S[C@H](C(=O)N1CCC(F)(F)CC1)C1(O)CCC2(CCC2)CC1` [Example 2.69.226S.I., (S)-1-(4,4-Difluoropiperidin-1-yl)-2-(((2S,3R,4S,5R,6R)-5-hydroxy-6-(hydroxymethyl)-3-methoxy-4-(4-(3,4,5-trifluorophenyl)-1H-1,2,3-triazol-1-yl)tetrahydro-2H-pyran-2-yl)thio)-2-(7-hydroxyspiro[3.5]nonan-7-yl)ethan-1-one]: the IC50 in assay [1] (setting [3]) came to 120 nM; in assay [2], 270 nM.

On to `CN(C)C(=O)C(S[C@@H]1O[C@H](CO)[C@H](O)[C@H](n2cc(-c3cc(F)c(F)c(F)c3)nn2)[C@H]1O)C1(O)CCC(F)(F)CC1` (mixture of isomers) [Example 2.44.201., 2-(4,4-Difluoro-1-hydroxycyclohexyl)-2-(((2S,3R,4S,5R,6R)-3,5-dihydroxy-6-(hydroxymethyl)-4-(4-(3,4,5-trifluorophenyl)-1H-1,2,3-triazol-1-yl)tetrahydro-2H-pyran-2-yl)thio)-N,N-dimethylacetamide], for which the results for the IC50 in assay [1] (setting [6]) and in assay [2] were 100 nM and 230 nM, respectively.

Consider `CN(C(=O)C(S[C@@H]1O[C@H](CO)[C@H](O)[C@H](n2cc(-c3cc(F)c(F)c(F)c3)nn2)[C@H]1O)C1(O)CCC(F)(F)CC1)C1CC1` (stereo partly drawn) [Example 2.44.221., N-Cyclopropyl-2-(4,4-difluoro-1-hydroxycyclohexyl)-2-(((2S,3R,4S,5R,6R)-3,5-dihydroxy-6-(hydroxymethyl)-4-(4-(3,4,5-trifluorophenyl)-1H-1,2,3-triazol-1-yl)tetrahydro-2H-pyran-2-yl)thio)-N-methylacetamide], for which the figures for the IC50 in assay [1] (setting [6]) and in assay [2] were 30 nM and 60 nM, respectively.

Take `CN(C(=O)[C@H](S[C@@H]1O[C@H](CO)[C@H](O)[C@H](n2cc(-c3cc(F)c(F)c(F)c3)nn2)[C@H]1O)C1(O)CCOCC1)c1cccnc1` [Example 2.41.234R]: the IC50 was 7800 nM in assay [1] (Table 9, hGal-3, read-out: IC50 (Gal-3 inhibition)) and 10900 nM in assay [2].

For `CCN(CC1CC1)C(=O)C(S[C@@H]1O[C@H](CO)[C@H](O)[C@H](n2cc(-c3cc(F)c(F)c(F)c3)nn2)[C@H]1OC)C1(O)CCC(F)(F)CC1` (stereo partly shown) [Example 2.44.239.I.], the IC50 in assay [1] (Table 10, hGal-3, read-out: IC50 (Gal-3 inhibition)) was 40 nM; in assay [2], 20 nM.

On to `CCN(C)C(=O)C(S[C@@H]1O[C@H](CO)[C@H](O)[C@H](n2cc(-c3ccc(Br)c(F)c3)nn2)[C@H]1O)C1(O)CCOCC1` (stereo partly drawn) [Example 12.41.203., 2-(((2S,3R,4S,5R,6R)-4-(4-(4-Bromo-3-fluorophenyl)-1H-1,2,3-triazol-1-yl)-3,5-dihydroxy-6-(hydroxymethyl)tetrahydro-2H-pyran-2-yl)thio)-N-ethyl-2-(4-hydroxytetrahydro-2H-pyran-4-yl)-N-methylacetamide], for which the IC50 in assay [1] (Table 11, hGal-3, read-out: IC50 (Gal-3 inhibition)) stood at 40 nM; in assay [2] it was 360 nM.

`CCN(C)C(=O)C(S[C@@H]1O[C@H](CO)[C@H](O)[C@H](n2cc(-c3cc(F)c(F)c(F)c3)nn2)[C@H]1O)C(O)c1ccn(C)n1` (stereo partly drawn) [Example 2.65.203., 2-(((2S,3R,4S,5R,6R)-3,5-dihydroxy-6-(hydroxymethyl)-4-(4-(3,4,5-trifluorophenyl)-1H-1,2,3-triazol-1-yl)tetrahydro-2H-pyran-2-yl)thio)-N-ethyl-3-hydroxy-N-methyl-3-(1-methyl-1H-pyrazol-3-yl)propanamide]: the IC50 in assay [1] (setting [5]) was determined as 650 nM; in assay [2], 3050 nM.
